In PubChem BioAssay AID1648 (Sanford-Burnham Center for Chemical Genomics, 2009):
The source made the active and inactive calls. How the calls were made is not given here.

biological target: Serine/threonine-protein kinase mTOR (Homo sapiens) (UniProt P42345); experiment: binders of mTOR FRB domain, biophysical, NMR (AID 1648); settings: NMR binding to FRB domain, chemical shift
Sequence (P42345 2015-2114): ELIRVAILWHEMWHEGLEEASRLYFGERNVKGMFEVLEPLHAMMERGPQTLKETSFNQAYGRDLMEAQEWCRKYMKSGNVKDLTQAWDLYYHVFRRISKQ

| Compound | Kd |
| --- | --- |
| COCC(=O)Nc1cccc2ccccc12 | > 4 mM (inactive) |
| O=C(O)c1ccnn1-c1ccccc1 | > 4 mM (inactive) |
| Cc1cc(=O)n2nc(-c3ccccc3)sc2n1 | > 4 mM (inactive) |
| CC1=C(C(=O)Nc2ccccc2)SCCO1 | > 4 mM (inactive) |
| OC1(c2ccc(Cl)cc2)CCNCC1 | > 4 mM (inactive) |
| CNC(=O)c1cc(C)c(-c2ccccc2)s1 | > 4 mM (inactive) |
| CCOC(=O)C1CCNCC1 | > 4 mM (inactive) |
| CN1CCCn2c1nc1c2c(=O)[nH]c(=O)n1C | > 4 mM (inactive) |
| CC(CCC(=O)O)[C@H]1CCC2C3C(C[C@H](O)[C@@]21C)[C@@]1(C)CC[C@@H](O)C[C@H]1C[C@H]3O (some centres not stated) | > 4 mM (inactive) |
| Cc1nnsc1C(=O)Nc1ccccc1[N+](=O)[O-] | > 4 mM (inactive) |
| COc1cccc(N2CCN(C(=O)c3cccnc3)CC2)c1 | > 4 mM (inactive) |
| NC(=O)c1ccc(C(N)=O)cc1 | > 4 mM (inactive) |
| COc1cc(C)nc(N(CCO)CCO)n1 | > 4 mM (inactive) |
| CN(C)C(=S)Nc1nc2ccccc2s1 | > 4 mM (inactive) |
| CC(=O)NC12CC3CC(CC(O)(C3)C1)C2 | > 4 mM (inactive) |
| Cc1ccccc1NC(=O)C1CCC(=O)N1 (configuration not stated) | > 4 mM (inactive) |
| CC(=O)Oc1cc(-c2coc3cc(OC(C)=O)c(OC(C)=O)c(OC(C)=O)c3c2=O)cc(OC(C)=O)c1OC(C)=O | > 4 mM (inactive) |
| O=C1C2C3CCC(O3)C2C(=O)N1c1ccccc1 (configuration not stated) | > 4 mM (inactive) |
| Cc1ccc(F)cc1NC(=O)c1ccc2c(c1)OCO2 | > 4 mM (inactive) |
| CC(=O)c1c(C)nc(-c2ccc(F)cc2)n1O | > 4 mM (inactive) |
| CN(Cc1nc2ccccc2n1C)C(=O)c1cccs1 | > 4 mM (inactive) |
| CCC1C(=O)OCC1Cc1cncn1C (configuration not stated) | > 4 mM (inactive) |
| O=C1C=CC2=C3c4cc(O)c(O)cc4CC3(O)COC2=C1O (configuration not stated) | > 4 mM (inactive) |
| O=C(O)c1cc(O)c(O)c(O)c1 | > 4 mM (inactive) |

| Compound | Kd |
| --- | --- |
| O=C(O)c1ccc(-c2ccccn2)s1 | > 4 mM (inactive) |
| C=C1C2CC[C@H]3[C@]4(C)C[C@H](OC5OC(CO)C(OS(=O)(=O)O)C(OS(=O)(=O)O)C5OC(=O)CC(C)C)C[C@@H](C(=O)O)[C@H]4CC[C@]3(C2)[C@H]1O (some centres not stated) | > 4 mM (inactive) |
| c1ccc(CCc2nc(-c3ccccn3)no2)cc1 | > 4 mM (inactive) |
| NCCC(=O)N[C@@H](Cc1cnc[nH]1)C(=O)O | > 4 mM (inactive) |
| Cn1cnc2c1c(=O)[nH]c(=O)n2C | > 4 mM (inactive) |
| CN1CCN(C(=O)/C=C\C(=O)O)CC1 | > 4 mM (inactive) |
| O=C1C2C3C=CC(O3)C2C(=O)N1c1ccccc1 (configuration not stated) | > 4 mM (inactive) |
| O=C(Cn1cnc2ccccc2c1=O)N1CCOCC1 | > 4 mM (inactive) |
| Cc1cc(C)n(CCC(=O)O)n1 | > 4 mM (inactive) |
| COc1c(O)cc2c(c1O)[C@H]1O[C@H](CO)[C@@H](O)[C@H](O)[C@@H]1OC2=O | > 4 mM (inactive) |
| CC(C)=CCOc1cc2oc(=O)ccc2cc1O | > 4 mM (inactive) |
| NCC(=O)c1ccccc1 | > 4 mM (inactive) |
| NCCNC(=S)Nc1ccccc1 | > 4 mM (inactive) |
| O=C(O)c1ccc2ncccc2c1 | > 4 mM (inactive) |
| O=C1c2ccccc2C(=O)N1CCc1ccccn1 | > 4 mM (inactive) |
| O=C(O)c1csc(-c2cccs2)n1 | > 4 mM (inactive) |
| Cc1nc(-c2ccc(CO)s2)cs1 | > 4 mM (inactive) |
| CCC[C@H]1CC2=C(C[C@@H](CC)CC3=C1C(=O)OC3=O)C(=O)OC2=O | > 4 mM (inactive) |
| C/C=C/COc1nc2c(c(=O)n(C)c(=O)n2C)n1C | > 4 mM (inactive) |
| CN(C)S(=O)(=O)c1ccc(N2CCOCC2)nc1 | > 4 mM (inactive) |
| O=C(Nc1ccc(N2CCOCC2)cc1)C1CC1 | > 4 mM (inactive) |
| CCSc1n[nH]c(=O)[nH]c1=O | > 4 mM (inactive) |
| CSc1ccccc1NC(=O)c1cccnc1 | > 4 mM (inactive) |
